Reference: patent US11142526B2, “Spirocycle compounds and methods of making and using same” (H. Lundbeck A/S, priority 2017, dated 2021)
Read-outs that look alike come from different tables or passages of the source.

Columns and labels:
[1] = molecular target: MAGL (Homo sapiens (Human), UniProt Q99685); test: In vitro competitive activity-based protein profiling (gel-based, FP-Rh or HT-01 probe); format: biochemical; settings: for IC50: read-out: MAGL Human PC3 (IC50)
Procedure: In Vitro Competitive Activity-Based Protein Profiling.
Proteomes (human prefrontal cortex or cell membrane fractions) (50 μL, 1.0 mg/mL total protein concentration) were preincubated with varying concentrations of inhibitors at 37° C. After 30 min, FP-Rh or HT-01 (1.0 μL, 50 μM in DMSO) was added and the mixture was incubated for another 30 min at room temperature. Reactions were quenched with SDS loading buffer (15 μL—4×) and run on SDS-PAGE.

[2] = molecular target: T1, MAGL (Mus musculus (Mouse), UniProt O35678); test: In vitro competitive activity-based protein profiling, mouse brain proteome; format: biochemical; settings: for inhibition at 1 µM: mouse; for IC50: mouse brain
T1 sequence (O35678 whole entry): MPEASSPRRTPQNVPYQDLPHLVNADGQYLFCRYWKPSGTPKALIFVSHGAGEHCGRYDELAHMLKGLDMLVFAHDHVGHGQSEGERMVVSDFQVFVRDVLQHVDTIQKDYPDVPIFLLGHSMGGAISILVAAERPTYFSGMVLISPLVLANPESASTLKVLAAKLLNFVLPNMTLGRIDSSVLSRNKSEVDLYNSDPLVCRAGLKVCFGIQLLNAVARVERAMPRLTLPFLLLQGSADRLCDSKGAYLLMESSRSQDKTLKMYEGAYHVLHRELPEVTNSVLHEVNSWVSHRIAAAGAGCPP

[3] = molecular target: T1, MAGL; test: Mouse brain proteomes from inhibitor treated mice (oral gavage, brain MAGL activity 4 h after administration); format: in vivo; settings: 5 mg/kg oral gavage
Procedure: Preparation of Mouse Brain Proteomes from Inhibitor Treated Mice.
Inhibitors were administered to wild-type C57B1/6J by oral gavage in a vehicle of polyethylene glycol.

[4] = human PC3, read-out: MAGL % Inhibition at 1 μM (human PC3)
[5] = human PFC (prefrontal cortex), read-out: MAGL % Inhibition at 1 μM (human PFC)

Sequence of MAGL (Homo sapiens (Human), UniProt Q99685) (Q99685 whole entry): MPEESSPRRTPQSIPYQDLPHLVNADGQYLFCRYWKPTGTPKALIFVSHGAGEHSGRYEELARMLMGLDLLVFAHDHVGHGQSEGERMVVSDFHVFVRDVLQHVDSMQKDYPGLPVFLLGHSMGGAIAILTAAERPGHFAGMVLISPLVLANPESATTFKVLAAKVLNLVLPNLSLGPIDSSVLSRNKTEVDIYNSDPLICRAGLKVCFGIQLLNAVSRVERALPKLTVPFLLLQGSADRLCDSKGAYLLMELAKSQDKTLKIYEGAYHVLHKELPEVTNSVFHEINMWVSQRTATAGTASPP

Row | Compound | inhibition at 1 µM [1, 4] | inhibition at 1 µM [1, 5] | IC50 ([1]; human PC3) | inhibition at 1 µM [2] | MAGL % Inhibition at 5 mg/kg (Mouse) [3] | IC50 [2]
1 | O=C(OC(C(F)(F)F)C(F)(F)F)N1CCC2(CCCN2C(=O)C2(c3ncc(F)cn3)CC2)CC1 [Example 180, 1,1,1,3,3,3-Hexafluoropropan-2-yl 1-(1-(5-fluoropyrimidin-2-yl)cyclopropane-1-carbonyl)-1,8-diazaspiro[4.5] decane-8-carboxylate] | > 75% | > 75% | < 100 nM | > 75% | ### (% inhibition is greater than or equal to 75%) | 
2 | CN(Cc1cc2cc(Cl)ccc2s1)C1(C)CCN(C(=O)OC(C(F)(F)F)C(F)(F)F)CC1 [Example 62, 1,1,1,3,3,3-Hexafluoropropan-2-yl 4-(((5-chlorobenzo[b]thiophen-2-yl)methyl)(methyl)amino)-4-methylpiperidine-1-carboxylate] |  |  | < 100 nM | > 75% | ### (% inhibition is greater than or equal to 75%) | < 100 nM
3 | CC1(NC(=O)c2cn3c(n2)CN(S(C)(=O)=O)CC3)CCN(C(=O)OC(C(F)(F)F)C(F)(F)F)CC1 [Example 27, 1,1,1,3,3,3-hexafluoropropan-2-yl 4-methyl-4-(7-(methylsulfonyl)-5,6,7,8-tetrahydroimidazo[1,2-a]pyrazine-2-carboxamido)piperidine-1-carboxylate] | > 75% |  | < 100 nM |  | # (% inhibition less or equal to 25%) | 
4 | CC(C)N1CCn2cc(C(=O)NC3(C)CCN(C(=O)OC(C(F)(F)F)C(F)(F)F)CC3)nc2C1 [Example 182, 1,1,1,3,3,3-Hexafluoropropan-2-yl 4-(7-isopropyl-5,6,7,8-tetrahydroimidazo[1,2-a]pyrazine-2-carboxamido)-4-methylpiperidine-1-carboxylate] | > 75% | > 75% | < 100 nM |  | ### (% inhibition is greater than or equal to 75%) | 
5 | Cc1c(C(=O)N2CCCC23CCN(C(=O)OC(C(F)(F)F)C(F)(F)F)CC3)[nH]c2ccc(Cl)cc12 [Example 109, 1,1,1,3,3,3-Hexafluoropropan-2-yl 1-(5-chloro-3-methyl-1H-indole-2-carbonyl)-1,8-diazaspiro[4.5] decane-8-carboxylate] |  |  |  | > 75% | ### (% inhibition is greater than or equal to 75%) | < 100 nM
6 | COc1ccc(-c2cc(CN3CCCC34CCN(C(=O)OC(C(F)(F)F)C(F)(F)F)CC4)no2)cc1 [Example 46, 1,1,1,3,3,3-Hexafluoropropan-2-yl 1-((5-(4-methoxyphenyl)isoxazol-3-yl)methyl)-1,8-diazaspiro[4.5] decane-8-carboxylate] |  |  |  |  | ## (% inhibition is less than 75% and greater than 25%) | < 100 nM
7 | CC(C)c1cc(CN2CCC3(CCN(C(=O)OC(C(F)(F)F)C(F)(F)F)CC3)C2)n(C2CCOCC2)n1 [Example 214, 1,1,1,3,3,3-Hexafluoropropan-2-yl 2-((3-isopropyl-1-(tetrahydro-2H-pyran-4-yl)-1H-pyrazol-5-yl)methyl)-2,8-diazaspiro[4.5]decane-8-carboxylate] |  |  |  | > 75% | ### (% inhibition is greater than or equal to 75%) | < 100 nM
8 | CC(C)n1cc(CN2CCC3(CCN(C(=O)OC(C(F)(F)F)C(F)(F)F)CC3)C2)c(-c2cccc(Cl)c2)n1 [Example 218, 1,1,1,3,3,3-Hexafluoropropan-2-yl 2-((3-(3-chlorophenyl)-1-isopropyl-1H-pyrazol-4-yl)methyl)-2,8-diazaspiro[4.5]decane-8-carboxylate] |  |  |  | > 75% | ### (% inhibition is greater than or equal to 75%) | < 100 nM
